Source: ChEMBL document CHEMBL6092180 (Eur J Med Chem, 2024)
Values after ≈ are worked out from the molar mass of the structure shown.

Legend:
Type in all cases: functional
Pichia kudriavzevii = test: Antifungal activity against Candida krusei GIM 2.1 assessed as inhibition of fungal growth by CLSI M27-A3 guidelines based method
Candida albicans [1] = test: Antifungal activity against fluconazole and iodiconazole resistant Candida albicans clinical isolate 17# assessed as inhibition of fungal growth by CLSI M27-A3 guidelines based method
Candida albicans [2] = test: Antifungal activity against Candida albicans GIM 2.194 assessed as inhibition of fungal growth by CLSI M27-A3 guidelines based method
Candida albicans [3] = test: Antifungal activity against fluconazole-resistant Candida albicans clinical isolate 632 assessed as inhibition of fungal growth by CLSI M27-A3 guidelines based method
Candida albicans [4] = test: Antifungal activity against fluconazole-resistant Candida albicans CaR assessed as inhibition of fungal growth by CLSI M27-A3 guidelines based method
Candida albicans [5] = test: Antifungal activity against fluconazole-resistant Candida albicans clinical isolate 103 assessed as inhibition of fungal growth by CLSI M27-A3 guidelines based method
Aspergillus fumigatus = test: Antifungal activity against Aspergillus fumigatus cgmcc 3.7795 assessed as inhibition of fungal growth by CLSI M27-A3 guidelines based method
Candida albicans [6] = test: Antifungal activity against fluconazole-resistant Candida albicans clinical isolate 904 assessed as inhibition of fungal growth by CLSI M27-A3 guidelines based method
Candida albicans [7] = test: Antifungal activity against fluconazole-resistant Candida albicans clinical isolate 901 assessed as inhibition of fungal growth by CLSI M27-A3 guidelines based method
Cryptococcus neoformans = test: Antifungal activity against Cryptococcus neoformans CGMCC 2.3161 assessed as inhibition of fungal growth by CLSI M27-A3 guidelines based method
Candida albicans [8] = test: Antifungal activity against fluconazole-resistant Candida albicans clinical isolate 100 assessed as inhibition of fungal growth by CLSI M27-A3 guidelines based method
Nakaseomyces glabratus = test: Antifungal activity against Candida glabrata assessed as inhibition of fungal growth by CLSI M27-A3 guidelines based method
Candida albicans [9] = test: Antifungal activity against fluconazole-resistant Candida albicans clinical isolate 311 assessed as inhibition of fungal growth by CLSI M27-A3 guidelines based method
Candida tropicalis = test: Antifungal activity against Candida tropicalis GIM 2.183 assessed as inhibition of fungal growth by CLSI M27-A3 guidelines based method
Candida parapsilosis = test: Antifungal activity against Candida parapsilosis GIM 2.190 assessed as inhibition of fungal growth by CLSI M27-A3 guidelines based method; conditions: Lodderomyces parapsilosis
Candida albicans [10] = test: Antifungal activity against Candida albicans SC5314 assessed as inhibition of fungal growth by CLSI M27-A3 guidelines based method

Row | Compound | MIC80 (Pichia kudriavzevii) [µg/mL] | MIC80 (Candida albicans [1]) [µg/mL] | MIC80 (Candida albicans [2]) [µg/mL] | MIC80 (Candida albicans [3]) [µg/mL] | MIC80 (Candida albicans [4]) [µg/mL] | MIC80 (Candida albicans [5]) [µg/mL] | MIC80 (Aspergillus fumigatus) [µg/mL] | MIC80 (Candida albicans [6]) [µg/mL] | MIC80 (Candida albicans [7]) [µg/mL] | MIC80 (Cryptococcus neoformans) [µg/mL] | MIC80 (Candida albicans [8]) [µg/mL] | MIC80 (Nakaseomyces glabratus) [µg/mL] | MIC80 (Candida albicans [9]) [µg/mL] | MIC80 (Candida tropicalis) [µg/mL] | MIC80 (Candida parapsilosis) [µg/mL] | MIC80 (Candida albicans [10]) [µg/mL]
1 | C[C@@H](N(C)Cc1ccc(C#Cc2ccc(I)cc2)cc1)[C@](O)(Cn1cncn1)c1ccc(F)cc1F | 0.05 (≈ 0.0836 µM) | 16 (≈ 26.7 µM) | 0.05 (≈ 0.0836 µM) | 16 (≈ 26.7 µM) | 16 (≈ 26.7 µM) | 32 (≈ 53.5 µM) | 0.2 (≈ 0.334 µM) | > 64 | 16 (≈ 26.7 µM) | 0.05 (≈ 0.0836 µM) | 32 (≈ 53.5 µM) | 0.03 (≈ 0.0501 µM) | > 64 | 0.013 (≈ 0.0217 µM) | 0.013 (≈ 0.0217 µM) | 0.05 (≈ 0.0836 µM)
2 | C[C@@H](N(C)Cc1ccc(C#Cc2cc(F)c(Cl)cc2F)cc1)[C@](O)(Cn1cncn1)c1ccc(F)cc1F | 0.05 (≈ 0.0921 µM) | 0.5 (≈ 0.921 µM) | 0.05 (≈ 0.0921 µM) | 4 (≈ 7.37 µM) | 0.5 (≈ 0.921 µM) | 8 (≈ 14.7 µM) | 0.2 (≈ 0.368 µM) | 32 (≈ 58.9 µM) | 4 (≈ 7.37 µM) | 0.013 (≈ 0.0239 µM) | 4 (≈ 7.37 µM) | 0.05 (≈ 0.0921 µM) | 32 (≈ 58.9 µM) | 0.006 (≈ 0.0111 µM) | 0.006 (≈ 0.0111 µM) | 0.013 (≈ 0.0239 µM)
3 | C[C@@H](N(C)Cc1ccc(C#Cc2ccc(F)c(F)c2)cc1)[C@](O)(Cn1cncn1)c1ccc(F)cc1F | 0.03 (≈ 0.059 µM) | 0.5 (≈ 0.983 µM) | 0.025 (≈ 0.0492 µM) | 4 (≈ 7.87 µM) | 0.25 (≈ 0.492 µM) | 8 (≈ 15.7 µM) | 0.1 (≈ 0.197 µM) | 16 (≈ 31.5 µM) | 8 (≈ 15.7 µM) | 0.05 (≈ 0.0983 µM) | 8 (≈ 15.7 µM) | 0.05 (≈ 0.0983 µM) | 8 (≈ 15.7 µM) | 0.006 (≈ 0.0118 µM) | 0.006 (≈ 0.0118 µM) | 0.013 (≈ 0.0256 µM)
4 | C[C@@H](N(C)Cc1ccc(C#Cc2ccc(Cl)cc2)cc1)[C@](O)(Cn1cncn1)c1ccc(F)cc1F | 0.01 (≈ 0.0197 µM) | 0.5 (≈ 0.986 µM) | 0.025 (≈ 0.0493 µM) | 8 (≈ 15.8 µM) | 0.25 (≈ 0.493 µM) | 16 (≈ 31.6 µM) | 0.1 (≈ 0.197 µM) | 16 (≈ 31.6 µM) | 8 (≈ 15.8 µM) | 0.025 (≈ 0.0493 µM) | 8 (≈ 15.8 µM) | 0.03 (≈ 0.0592 µM) | 32 (≈ 63.1 µM) | 0.006 (≈ 0.0118 µM) | 0.006 (≈ 0.0118 µM) | 0.025 (≈ 0.0493 µM)
5 | CC(=O)c1ccc(C#Cc2ccc(CN(C)[C@H](C)[C@](O)(Cn3cncn3)c3ccc(F)cc3F)cc2)cc1 | 0.01 (≈ 0.0194 µM) | 0.5 (≈ 0.972 µM) | 0.013 (≈ 0.0253 µM) | 4 (≈ 7.77 µM) | 0.25 (≈ 0.486 µM) | 16 (≈ 31.1 µM) | 0.1 (≈ 0.194 µM) | 16 (≈ 31.1 µM) | 8 (≈ 15.5 µM) | 0.013 (≈ 0.0253 µM) | 16 (≈ 31.1 µM) | 0.01 (≈ 0.0194 µM) | 16 (≈ 31.1 µM) | 0.006 (≈ 0.0117 µM) | 0.006 (≈ 0.0117 µM) | 0.013 (≈ 0.0253 µM)
6 | C[C@@H](N(C)Cc1ccc(C#Cc2ccc(Br)cc2)cc1)[C@](O)(Cn1cncn1)c1ccc(F)cc1F | 0.03 (≈ 0.0544 µM) | 0.5 (≈ 0.907 µM) | 0.025 (≈ 0.0453 µM) | 8 (≈ 14.5 µM) | 0.25 (≈ 0.453 µM) | 8 (≈ 14.5 µM) | 0.1 (≈ 0.181 µM) | 16 (≈ 29 µM) | 8 (≈ 14.5 µM) | 0.025 (≈ 0.0453 µM) | 8 (≈ 14.5 µM) | 0.05 (≈ 0.0907 µM) | > 64 | 0.006 (≈ 0.0109 µM) | 0.006 (≈ 0.0109 µM) | 0.025 (≈ 0.0453 µM)
7 | Cc1ccc(C#Cc2ccc(CN(C)[C@H](C)[C@](O)(Cn3cncn3)c3ccc(F)cc3F)cc2)cc1 | 0.03 (≈ 0.0617 µM) | 0.5 (≈ 1.03 µM) | 0.013 (≈ 0.0267 µM) | 4 (≈ 8.22 µM) | 0.25 (≈ 0.514 µM) | 16 (≈ 32.9 µM) | 0.1 (≈ 0.206 µM) | 32 (≈ 65.8 µM) | 8 (≈ 16.4 µM) | 0.025 (≈ 0.0514 µM) | 8 (≈ 16.4 µM) | 0.01 (≈ 0.0206 µM) | 32 (≈ 65.8 µM) | 0.006 (≈ 0.0123 µM) | 0.006 (≈ 0.0123 µM) | 0.025 (≈ 0.0514 µM)
8 | C[C@@H](N(C)Cc1ccc(C#Cc2cc(F)c(F)cc2F)cc1)[C@](O)(Cn1cncn1)c1ccc(F)cc1F | 0.05 (≈ 0.095 µM) | 2 (≈ 3.8 µM) | 0.025 (≈ 0.0475 µM) | 4 (≈ 7.6 µM) | 1 (≈ 1.9 µM) | 8 (≈ 15.2 µM) | 0.2 (≈ 0.38 µM) | 32 (≈ 60.8 µM) | 8 (≈ 15.2 µM) | 0.025 (≈ 0.0475 µM) | 8 (≈ 15.2 µM) | 0.05 (≈ 0.095 µM) | 16 (≈ 30.4 µM) | 0.006 (≈ 0.0114 µM) | 0.006 (≈ 0.0114 µM) | 0.013 (≈ 0.0247 µM)
9 | C[C@@H](N(C)Cc1ccc(C#Cc2ccc(C(C)(C)C)cc2)cc1)[C@](O)(Cn1cncn1)c1ccc(F)cc1F | 3.2 (≈ 6.05 µM) | – | 3.2 (≈ 6.05 µM) | – | – | – | – | – | – | 3.2 (≈ 6.05 µM) | – | 3.2 (≈ 6.05 µM) | – | 1.6 (≈ 3.03 µM) | 1.6 (≈ 3.03 µM) | 1.6 (≈ 3.03 µM)
10 | CCOC(=O)c1ccc(C#Cc2ccc(CN(C)CC(O)(Cn3cncn3)c3ccc(F)cc3F)cc2)cc1 (centres undefined) | 0.2 (≈ 0.377 µM) | – | 0.013 (≈ 0.0245 µM) | – | – | – | – | – | – | 0.025 (≈ 0.0471 µM) | – | 0.1 (≈ 0.188 µM) | – | 0.013 (≈ 0.0245 µM) | 0.006 (≈ 0.0113 µM) | 0.013 (≈ 0.0245 µM)
11 | CN(Cc1ccc(C#Cc2ccccc2Br)cc1)CC(O)(Cn1cncn1)c1ccc(F)cc1F (centres undefined) | 0.03 (≈ 0.0558 µM) | – | 0.006 (≈ 0.0112 µM) | – | – | – | – | – | – | 0.013 (≈ 0.0242 µM) | – | 0.4 (≈ 0.744 µM) | – | 0.013 (≈ 0.0242 µM) | 0.006 (≈ 0.0112 µM) | 0.013 (≈ 0.0242 µM)
